Results as given in patent US11485714B2, “Hydroxyethylamine-based piperazine compounds, and methods of producing and using the same for treating disease” (National Institute of Immunology, priority 2020, dated 2022).
Like-named read-outs stand apart in the source and are kept apart here.

How the values were obtained:
Format in all cases: cell-based
[1] = tested on: P. falciparum CQ-resistant (PfDd2); test: SYBR Green I assay, asynchronous cultures, CQ-resistant clone; conditions: Plasmodium falciparum, read-out: PfDd2 IC50, nM (±SD)
[2] = tested on: P. falciparum CQ-sensitive (Pf3D7); test: SYBR Green I assay, asynchronous cultures, CQ-sensitive clone; conditions: Plasmodium falciparum, read-out: Pf3D7 IC50, nM (±SD)
Method: Initially, antimalarial activity of Compound I was assessed on asynchronous cultures of P. falciparum sensitive (Pf3D7) clone using the SYBR Green assay. […] DMSO was used as a vehicle control, CQ (Chloroquine), DOX (Doxycycline) and DHA (Dihydroartemisinin).

[3] = tested on: Field isolates from Kenya (P. falciparum infected blood); test: Screening against freshly collected field isolates; conditions: Plasmodium falciparum, read-out: Field isolates from Kenya IC50, nM (±SD)
[4] = asynchronous cultures, 37° C., 72 hours, SYBR Green I

SMILES | IC50 ([1]; 72 h) [nM] | IC50 ([2]; 72 h) [nM] | IC50 [3] [nM] | IC50 [1, 4] [nM] | IC50 [2, 4] [nM] | IC50 ([3]; Table 1) [nM]
CCN(CC)CCCC(C)Nc1ccnc2cc(Cl)ccc12 (stereo not drawn) [Chloroquine, reference compound] | 137 | 32.3 | 75.2 |  |  | 
C[C@H]1[C@@H](O)O[C@@H]2O[C@@]3(C)CC[C@H]4[C@H](C)CC[C@@H]1[C@@]24OO3 [Dihydroartemisinin, reference compound] |  |  |  | 46 | 27 | 7.37
